In the CheMixHub viscosity set:

Assay: xn = mol fraction of the nth substance listed

CCCOC(C)=O + CCCO
viscosity [mPa·s], 101.3 kPa
Conditions | x2 = 0.3042 | x2 = 0.5372 | x2 = 0.7245 | x2 = 0.8572
298.15 K | 0.592 | 0.755 | 0.987 | 1.305
308.15 K | 0.53 | 0.653 | 0.829 | 1.066

ClC(Cl)(Cl)Cl + CCCO
101 kPa
Conditions | viscosity [mPa·s]
298.15 K, x2 = 0.0685 | 0.89
298.15 K, x2 = 0.1 | 0.903
298.15 K, x2 = 0.1294 | 0.909
298.15 K, x2 = 0.2085 | 0.962
298.15 K, x2 = 0.22 | 0.946
298.15 K, x2 = 0.2859 | 1.02
298.15 K, x2 = 0.31 | 1.012
298.15 K, x2 = 0.39 | 1.089
298.15 K, x2 = 0.3964 | 1.113
298.15 K, x2 = 0.5849 | 1.317
298.15 K, x2 = 0.63 | 1.409
298.15 K, x2 = 0.72 | 1.554
298.15 K, x2 = 0.79 | 1.667
298.15 K, x2 = 0.8446 | 1.724
298.15 K, x2 = 0.8705 | 1.769
298.15 K, x2 = 0.8955 | 1.808
298.15 K, x2 = 0.91 | 1.88
298.15 K, x2 = 0.9511 | 1.877
303.15 K, x2 = 0.0615 | 0.8319
303.15 K, x2 = 0.0651 | 0.8324
303.15 K, x2 = 0.1059 | 0.8333
303.15 K, x2 = 0.2377 | 0.8752
303.15 K, x2 = 0.3576 | 0.9546
303.15 K, x2 = 0.4503 | 1.041
303.15 K, x2 = 0.5592 | 1.163
303.15 K, x2 = 0.6985 | 1.339
303.15 K, x2 = 0.7899 | 1.461
303.15 K, x2 = 0.8376 | 1.524
303.15 K, x2 = 0.8976 | 1.603
303.15 K, x2 = 0.9626 | 1.682
303.15 K, x2 = 0.9633 | 1.684
308.15 K, x2 = 0.0685 | 0.775
308.15 K, x2 = 0.1294 | 0.785
308.15 K, x2 = 0.2085 | 0.817
308.15 K, x2 = 0.2859 | 0.849
308.15 K, x2 = 0.3964 | 0.905
308.15 K, x2 = 0.5849 | 1.071
308.15 K, x2 = 0.8446 | 1.383
308.15 K, x2 = 0.8705 | 1.402
308.15 K, x2 = 0.8955 | 1.435
308.15 K, x2 = 0.9511 | 1.487
318.15 K, x2 = 0.0685 | 0.676
318.15 K, x2 = 0.1294 | 0.686
318.15 K, x2 = 0.2085 | 0.702
318.15 K, x2 = 0.2859 | 0.735
318.15 K, x2 = 0.3964 | 0.772
318.15 K, x2 = 0.5849 | 0.882
318.15 K, x2 = 0.8446 | 1.109
318.15 K, x2 = 0.8705 | 1.128
318.15 K, x2 = 0.8955 | 1.152
318.15 K, x2 = 0.9511 | 1.196

CCC(C)(O)CC + CCO
298.15 K, 101.33 kPa
Conditions | viscosity [mPa·s]
x2 = 0.1124 | 3.619
x2 = 0.2131 | 3.405
x2 = 0.299 | 3.345
x2 = 0.4102 | 3.232
x2 = 0.5116 | 3.007
x2 = 0.6138 | 2.632
x2 = 0.7104 | 2.203
x2 = 0.7975 | 1.837
x2 = 0.901 | 1.405

ClC(Cl)(Cl)Cl + CCO
Conditions | viscosity [mPa·s]
298.15 K, 101 kPa, x2 = 0.0247 | 0.89
298.15 K, 101 kPa, x2 = 0.0475 | 0.884
298.15 K, 101 kPa, x2 = 0.0769 | 0.883
298.15 K, 101 kPa, x2 = 0.1 | 0.872
298.15 K, 101 kPa, x2 = 0.1289 | 0.874
298.15 K, 101 kPa, x2 = 0.2438 | 0.886
298.15 K, 101 kPa, x2 = 0.27 | 0.886
298.15 K, 101 kPa, x2 = 0.37 | 0.915
298.15 K, 101 kPa, x2 = 0.3813 | 0.931
298.15 K, 101 kPa, x2 = 0.45 | 0.947
298.15 K, 101 kPa, x2 = 0.5136 | 0.974
298.15 K, 101 kPa, x2 = 0.645 | 1.023
298.15 K, 101 kPa, x2 = 0.69 | 1.037
298.15 K, 101 kPa, x2 = 0.768 | 1.068
298.15 K, 101 kPa, x2 = 0.77 | 1.064
298.15 K, 101 kPa, x2 = 0.83 | 1.079
298.15 K, 101 kPa, x2 = 0.8966 | 1.108
298.15 K, 101 kPa, x2 = 0.93 | 1.091
298.15 K, 101 kPa, x2 = 0.9687 | 1.1
303 K, 101.33 kPa, x2 = 0.37 | 0.8302
303 K, 101.33 kPa, x2 = 0.45 | 0.8567
303 K, 101.33 kPa, x2 = 0.53 | 0.8727
303 K, 101.33 kPa, x2 = 0.64 | 0.9314
303 K, 101.33 kPa, x2 = 0.69 | 0.9449
303 K, 101.33 kPa, x2 = 0.73 | 0.9479
303 K, 101.33 kPa, x2 = 0.83 | 0.9806
303 K, 101.33 kPa, x2 = 0.89 | 0.9857
303 K, 101.33 kPa, x2 = 0.91 | 1.007
303 K, 101.33 kPa, x2 = 0.93 | 0.9995
303 K, 101.33 kPa, x2 = 0.95 | 1.008
303.15 K, 101 kPa, x2 = 0.0565 | 0.8183
303.15 K, 101 kPa, x2 = 0.0932 | 0.8112
303.15 K, 101 kPa, x2 = 0.1798 | 0.8093
303.15 K, 101 kPa, x2 = 0.312 | 0.8313
303.15 K, 101 kPa, x2 = 0.4579 | 0.8759
303.15 K, 101 kPa, x2 = 0.5273 | 0.8994
303.15 K, 101 kPa, x2 = 0.6028 | 0.924
303.15 K, 101 kPa, x2 = 0.689 | 0.949
303.15 K, 101 kPa, x2 = 0.7868 | 0.974
303.15 K, 101 kPa, x2 = 0.867 | 0.9867
303.15 K, 101 kPa, x2 = 0.9134 | 0.9917
303.15 K, 101 kPa, x2 = 0.9566 | 0.9933
303.15 K, 101 kPa, x2 = 0.9724 | 0.9934
308.15 K, 101 kPa, x2 = 0.0247 | 0.773
308.15 K, 101 kPa, x2 = 0.0475 | 0.768
308.15 K, 101 kPa, x2 = 0.0769 | 0.762
308.15 K, 101 kPa, x2 = 0.1289 | 0.759
308.15 K, 101 kPa, x2 = 0.2438 | 0.768
308.15 K, 101 kPa, x2 = 0.3813 | 0.783
308.15 K, 101 kPa, x2 = 0.5136 | 0.825
308.15 K, 101 kPa, x2 = 0.645 | 0.857
308.15 K, 101 kPa, x2 = 0.768 | 0.891
308.15 K, 101 kPa, x2 = 0.8966 | 0.923
308.15 K, 101 kPa, x2 = 0.9687 | 0.914
313 K, 101.33 kPa, x2 = 0.37 | 0.7056
313 K, 101.33 kPa, x2 = 0.45 | 0.7242
313 K, 101.33 kPa, x2 = 0.53 | 0.7385
313 K, 101.33 kPa, x2 = 0.64 | 0.7801
313 K, 101.33 kPa, x2 = 0.69 | 0.7889
313 K, 101.33 kPa, x2 = 0.73 | 0.7949
313 K, 101.33 kPa, x2 = 0.83 | 0.8127
313 K, 101.33 kPa, x2 = 0.89 | 0.817
313 K, 101.33 kPa, x2 = 0.91 | 0.8276
313 K, 101.33 kPa, x2 = 0.93 | 0.8251
313 K, 101.33 kPa, x2 = 0.95 | 0.8358
318.15 K, 101 kPa, x2 = 0.0247 | 0.678
318.15 K, 101 kPa, x2 = 0.0475 | 0.676
318.15 K, 101 kPa, x2 = 0.0769 | 0.671
318.15 K, 101 kPa, x2 = 0.1289 | 0.664
318.15 K, 101 kPa, x2 = 0.2438 | 0.672
318.15 K, 101 kPa, x2 = 0.3813 | 0.672
318.15 K, 101 kPa, x2 = 0.5136 | 0.698
318.15 K, 101 kPa, x2 = 0.645 | 0.72
318.15 K, 101 kPa, x2 = 0.768 | 0.744
318.15 K, 101 kPa, x2 = 0.8966 | 0.773
318.15 K, 101 kPa, x2 = 0.9687 | 0.769
323 K, 101.33 kPa, x2 = 0.37 | 0.6106
323 K, 101.33 kPa, x2 = 0.45 | 0.6123
323 K, 101.33 kPa, x2 = 0.53 | 0.6316
323 K, 101.33 kPa, x2 = 0.64 | 0.6595
323 K, 101.33 kPa, x2 = 0.69 | 0.6672
323 K, 101.33 kPa, x2 = 0.73 | 0.6698
323 K, 101.33 kPa, x2 = 0.83 | 0.6807
323 K, 101.33 kPa, x2 = 0.89 | 0.6862
323 K, 101.33 kPa, x2 = 0.91 | 0.6947
323 K, 101.33 kPa, x2 = 0.93 | 0.6952
323 K, 101.33 kPa, x2 = 0.95 | 0.6993
